# Laboratory results published in EPA's ToxValDB 9.5 (doi:10.2903/j.efsa.2013.3111).
# Tests used:
# [1] = tested on: Typhlodromus pyri; test: LR50; higher = less toxic; conditions: duration: 7 days, mortality
# [2] = tested on: Rattus norvegicus
# [3] = tested on: Tagia sp.
# [4] = tested on: Pimephales promelas
# [5] = tested on: Daphnia magna; conditions: chronic/long-term; duration: 21 days; reproduction
# [6] = tested on: Apis mellifera; conditions: acute; duration: 48 hours; oral; unspecified; mortality
# [7] = tested on: Bibionidae; conditions: chronic/long-term; duration: 28 days; other
# [8] = tested on: Anas platyrhynchos
# [9] = tested on: Colinus virginianus; conditions: acute, oral, mortality
smiles,measurement,setting,value
CC(C)CC(C)c1sccc1NC(=O)c1cn(C)nc1C(F)(F)F (stereo unspecified) [Penthiopyrad],LR50,[1]; acute,238 g/ha
same,LR50,[1]; chronic/long-term,124 g/ha
same,LD50,"[2]; acute, oral, mortality",> 2000 mg/kg
same,NOAEL,"[2]; chronic, body weight",54 mg/kg-day
same,LC50,"[3]; acute, duration: 14 days, mortality",> 1000 mg/kg
same,NOEC,"[3]; chronic/long-term, duration: 56 days, reproduction",≥ 48 mg/kg
same,LC50,"[4]; acute, duration: 96 hours, mortality",0.29 µg/mL
same,NOAEC,"[4]; chronic/long-term, duration: 33 days, growth",51 µg/L
same,NOAEC,[5],471 µg/L
same,LD50,[6],> 500 µg/piece
same,NOAEC,[7],50 mg/kg
same,LOAEL,"[8]; reproductive, reproduction",719 mg/kg-day
same,NOAEL,"[8]; reproductive, reproduction",207 mg/kg-day
same,LC50,"[8]; short-term, oral, feed, no effects",> 5790 mg/kg-day
same,LD50,[9]; diet,> 1910 mg/kg-day
same,LD50,[9],> 2250 mg/kg-day
